According to PubChem BioAssay (NCI):
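Interpolation was linear, between the two tested concentrations surrounding the appropriate level; five concentrations were tested over 48 hours in 96-well plates. TGI: concentration producing complete growth inhibition.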

Key:
Test in all cases: inhibition of tumour cell growth, NCI panel, 48 h
CCRF-CEM leukemia = tested on: CCRF-CEM leukemia
COLO 205 colon = tested on: COLO 205 colon
HOP-62 NSCLC = tested on: HOP-62 NSCLC
MDA-MB-231 breast = tested on: MDA-MB-231 breast
MDA-MB-435 = tested on: MDA-MB-435
MDA-N = tested on: MDA-N
MOLT-4 leukemia = tested on: MOLT-4 leukemia
NCI-H522 lung = tested on: NCI-H522 lung
RXF 393 renal = tested on: RXF 393 renal
SF-268 CNS = tested on: SF-268 CNS
SK-MEL-2 melanoma = tested on: SK-MEL-2 melanoma
SNB-19 CNS = tested on: SNB-19 CNS
SW-620 colon = tested on: SW-620 colon
T-47D breast = tested on: T-47D breast
TK-10 renal = tested on: TK-10 renal
UACC-62 melanoma = tested on: UACC-62 melanoma
SF-539 CNS = tested on: SF-539 CNS

Row | SMILES | TGI (CCRF-CEM leukemia) [µM] | TGI (COLO 205 colon) [µM] | TGI (HOP-62 NSCLC) [µM] | TGI (MDA-MB-231 breast) [µM] | TGI (MDA-MB-435) [µM] | TGI (MDA-N) [µM] | TGI (MOLT-4 leukemia) [µM] | TGI (NCI-H522 lung) [µM] | TGI (RXF 393 renal) [µM] | TGI (SF-268 CNS) [µM] | TGI (SK-MEL-2 melanoma) [µM] | TGI (SNB-19 CNS) [µM] | TGI (SW-620 colon) [µM] | TGI (T-47D breast) [µM] | TGI (TK-10 renal) [µM] | TGI (UACC-62 melanoma) [µM] | TGI (SF-539 CNS) [µM]
1 | Cc1ccc([N+](=O)[O-])cc1S(=O)(=O)Nc1ccc(C2=NN(S(=O)(=O)c3cc([N+](=O)[O-])ccc3C)C(c3ccccc3)C2)cc1 (configuration not stated) | > 100 | 78.8 | > 100 | 90.9 | > 100 | 97.3 | > 100 | 50.6 | > 100 | 56.7 | 61.6 | > 100 | > 100 | > 100 | > 100 | 44.7 | 
2 | Cc1ccc(CC2(C(=O)O)Cc3ccc(C)cc3C2)cc1 (configuration not stated) | > 100 | > 100 | > 100 | > 100 | > 100 | > 100 | > 100 | > 100 |  | > 100 | > 100 | > 100 | > 100 | > 100 | > 100 | > 100 | > 100
3 | Cc1cc(S(=O)(=O)NC2=NCc3nc4ccccc4n32)c(S)cc1Cl | 86.6 | 34.4 |  | 55.9 | 82.8 | 58.1 | 50.2 | > 100 | 33 | > 100 | 29.2 | > 100 | > 100 | 50.3 | > 100 | 33.3 | 42.7
4 | CCn1cc2c(=O)n3ncn(-c4ccc(Br)cc4)c3nc2n1 | > 100 | > 100 | > 100 | > 100 | > 100 | > 100 | > 100 | > 100 | > 100 | > 100 | > 100 | > 100 | > 100 | > 100 | > 100 | > 100 | 
5 | Oc1c(Br)cc(/C=C/c2ccnc(/C=C/c3cc(Br)c(O)c(Br)c3)c2)cc1Br | > 100 | 59.9 | > 100 | 59.4 | 63 | 91.3 | 45.8 |  |  | > 100 | 34.4 | > 100 | > 100 | 52.1 | 75 | 73.8 | 33
6 | Cc1ccc(O)c(C(c2cccc(C(c3cc(C)ccc3O)c3cc(C)ccc3O)c2)c2cc(C)ccc2O)c1 |  | 2.47 | 4.04 | 2.83 | 3.26 | 3.35 | 18.8 | 3.03 | 3.2 | 3.33 | 4.61 | 3.34 | 3.2 | 4.45 | 3.25 | 3.51 | 3.35
7 | Cc1ccc2c(=O)cc(-c3sccc3C)[nH]c2n1 | > 24.4 | 1.41 | > 100 | > 43.4 | > 100 | 0.359 | > 27.8 |  | > 20.1 | > 56.4 | > 40 | > 100 |  | > 100 | > 100 | > 72 | 1.79
8 | CCOC1OC(COC(=O)C(C)(C)C)C(O)CC1n1cc(C)c(=O)[nH]c1=O (configuration not stated) | > 100 | > 100 |  | > 100 | > 100 | > 100 |  | > 100 | > 100 | > 100 | > 100 | > 100 | > 100 | > 100 | > 100 | > 100 | > 100
9 | CCOC(=O)C(C(=O)OCC)=C1SC(=Nc2ccccc2)C(=Nc2ccccc2)N1c1ccccc1 | > 100 | > 100 | > 100 | > 100 | > 100 | > 100 | > 100 | > 100 | > 100 | > 100 | > 100 | > 100 |  | > 100 |  | > 100 | > 100
10 | NC(=O)C1CCCN1C(=O)C(Cc1cnc[nH]1)NC(=O)C1CCCC1 (configuration not stated) | > 100 | > 100 | > 100 | > 100 | > 100 | > 100 | > 100 | > 100 | > 100 |  |  | > 100 | > 100 | > 100 | > 100 | > 100 | 
11 | Cc1cc(S(=O)(=O)Nc2n[nH]c(-c3ccc(Cl)cc3)n2)c(SSc2cc(Cl)c(C)cc2S(=O)(=O)Nc2n[nH]c(-c3ccc(Cl)cc3)n2)cc1Cl | 60.6 | 67.4 | > 100 | > 100 | > 100 | > 100 | 54.2 | 83.9 | 63.7 | > 100 |  |  | 73.5 | 42.2 | > 100 | 47 | > 100
12 | c1csc(-c2nn3c(C45CC6CC(CC(C6)C4)C5)nnc3s2)c1 | > 100 | > 100 | > 100 | > 100 | > 100 | > 100 | > 100 | > 100 | > 100 | > 100 | > 100 | > 100 | > 100 | > 100 |  | > 100 | > 100
13 | COc1ccc(C2SC(N)=Nc3c2c(C)nn3C(=O)c2ccccc2O)cc1OC (configuration not stated) | > 10 | > 10 | > 10 | > 10 | > 10 | > 10 | > 10 |  | > 10 | > 10 | > 10 | > 10 | > 10 | > 10 | > 10 | 7.93 | > 10
14 | C=CCN(c1cc(OC)c(NC(C)=O)cc1[N+](=O)[O-])S(C)(=O)=O | > 100 | > 100 | > 100 | > 100 | > 100 | > 100 | > 100 | 12.5 | > 100 | > 100 | > 100 | > 100 | > 100 | > 100 | > 100 | > 100 | 
